Columns and labels:
Protease = Protease (Human immunodeficiency virus 1, UniProt Q9YQ12); test: Inhibition of wild type HIV1 protease
[1] = test system: Human immunodeficiency virus 1; test: Antiviral activity against HIV1 LAI infected in human MT-2 cells assessed as virus-induced cytopathic effect by MTT assay; settings: Human immunodeficiency virus 1, LAI
[2] = test system: Human immunodeficiency virus 1; test: Antiviral activity against wild type HIV1 ERS104P infected in human PHA-PBMs assessed as inhibition of p24 Gag protein production; settings: Human immunodeficiency virus 1, ERS104P
[3] = test system: Human immunodeficiency virus 1; test: Antiviral activity against multidrug resistant HIV1 MDR/B containing protease mutant infected in human PHA-PBMs assessed as inhibition of p24 Gag protein production; settings: Human immunodeficiency virus 1, MDR/B
[4] = test system: Human immunodeficiency virus 1; test: Antiviral activity against multidrug resistant HIV1 MDR/B containing protease mutant infected in human PHA-PBMs assessed as inhibition of p24 Gag protein production relative to wild type
[5] = test system: Human immunodeficiency virus 1; test: Antiviral activity against multidrug resistant HIV1 MDR/C containing protease mutant infected in human PHA-PBMs assessed as inhibition of p24 Gag protein production; settings: Human immunodeficiency virus 1, MDR/C
[6] = test system: Human immunodeficiency virus 1; test: Antiviral activity against multidrug resistant HIV1 MDR/G containing protease mutant infected in human PHA-PBMs assessed as inhibition of p24 Gag protein production; settings: Human immunodeficiency virus 1, MDR/G
[7] = test system: Human immunodeficiency virus 1; test: Antiviral activity against multidrug resistant HIV1 MDR/G containing protease mutant infected in human PHA-PBMs assessed as inhibition of p24 Gag protein production relative to wild type
[8] = test system: Human immunodeficiency virus 1; test: Antiviral activity against multidrug resistant HIV1 MDR/C containing protease mutant infected in human PHA-PBMs assessed as inhibition of p24 Gag protein production relative to wild type

Protease, sequence (Q9YQ12 whole entry): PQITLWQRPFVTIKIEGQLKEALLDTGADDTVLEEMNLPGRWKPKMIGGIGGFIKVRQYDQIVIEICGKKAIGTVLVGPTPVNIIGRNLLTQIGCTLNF

COc1ccc(S(=O)(=O)N(CC(C)C)C[C@@H](O)[C@H](Cc2cccc(-c3cccc(OC)c3)c2)NC(=O)O[C@H]2CCOC2)cc1
Ki (Protease): 1.53 nM | IC50 [1]: > 381 nM

COc1ccc(S(=O)(=O)N(CC(C)C)C[C@@H](O)[C@H](Cc2cccc(-c3cc(OC)cc(OC)c3)c2)NC(=O)OC(C)(C)C)cc1
Ki (Protease): 0.82 nM | IC50 [1]: > 1000 nM

COc1ccc(S(=O)(=O)N(CC(C)C)C[C@@H](O)[C@H](Cc2cccc(-c3ccccc3OC)c2)NC(=O)O[C@H]2CO[C@H]3OCC[C@H]32)cc1
Ki (Protease): 0.012 nM | EC50 [2]: 4.8 nM | EC50 [3]: 36 nM | fold change (FC) [4]: 8 | EC50 [5]: 2.9 nM | EC50 [6]: 4.7 nM | IC50 [1]: 3 nM | fold change (FC) [7]: 1 | fold change (FC) [8]: 1

COc1ccc(S(=O)(=O)N(CC(C)C)C[C@@H](O)[C@H](Cc2cccc(-c3cc(OC)cc(OC)c3)c2)NC(=O)O[C@H]2CO[C@H]3OCC[C@H]32)cc1
Ki (Protease): 0.014 nM | IC50 [1]: 5 nM

CC(C)CN(C[C@@H](O)[C@H](Cc1ccccc1)NC(=O)O[C@H]1CCOC1)S(=O)(=O)c1ccc(N)cc1
EC50 [2]: 37 nM | EC50 [3]: 44 nM | fold change (FC) [4]: 12 | EC50 [5]: 380 nM | EC50 [6]: 398 nM | fold change (FC) [7]: 11 | fold change (FC) [8]: 10

COc1ccc(S(=O)(=O)N(CC(C)C)C[C@@H](O)[C@H](Cc2cccc(-c3cc(OC(F)(F)F)cc(OC(F)(F)F)c3)c2)NC(=O)OC(C)(C)C)cc1
Ki (Protease): 92.8 nM | IC50 [1]: > 1000 nM

COc1ccc(S(=O)(=O)N(CC(C)C)C[C@@H](O)[C@H](Cc2cccc(-c3cc(C)cc(C)c3)c2)NC(=O)OC(C)(C)C)cc1
Ki (Protease): 48.8 nM | IC50 [1]: > 1000 nM

COc1ccc(S(=O)(=O)N(CC(C)C)C[C@@H](O)[C@H](Cc2cccc(-c3ccc4c(c3)OCO4)c2)NC(=O)OC(C)(C)C)cc1
Ki (Protease): 18 nM | IC50 [1]: > 1000 nM

COc1ccc(S(=O)(=O)N(CC(C)C)C[C@@H](O)[C@H](Cc2cccc(-c3cc(C)cc(C)c3)c2)NC(=O)O[C@H]2CO[C@H]3OCC[C@H]32)cc1
Ki (Protease): 0.45 nM | IC50 [1]: 56 nM

COc1ccc(S(=O)(=O)N(CC(C)C)C[C@@H](O)[C@H](Cc2cccc(-c3cc(C)cc(C)c3)c2)NC(=O)O[C@H]2CCOC2)cc1
Ki (Protease): 0.63 nM | IC50 [1]: > 1000 nM

COc1ccc(S(=O)(=O)N(CC(C)C)C[C@@H](O)[C@H](Cc2cccc(-c3c(OC)cccc3OC)c2)NC(=O)O[C@H]2CO[C@H]3OCC[C@H]32)cc1
Ki (Protease): 0.025 nM | IC50 [1]: 24 nM

COc1ccc(S(=O)(=O)N(CC(C)C)C[C@@H](O)[C@H](Cc2cccc(-c3cccc(OC)c3)c2)NC(=O)O[C@H]2CO[C@H]3OCC[C@H]32)cc1
Ki (Protease): 0.014 nM | IC50 [1]: 5 nM

COc1ccc(S(=O)(=O)N(CC(C)C)C[C@@H](O)[C@H](Cc2cccc(-c3cc(OC)cc(OC)c3)c2)NC(=O)O[C@H]2CCOC2)cc1
Ki (Protease): 0.58 nM | IC50 [1]: 180 nM
